This assay relates to Plasmodium falciparum. In words: GSK_TCMDC: Inhibition of Plasmodium falciparum 3D7 in whole erythrocytes, using parasite LDH activity as an index of growth. Format: functional, organism-based.

Several values for one entry are separate records, joined by “and”; a condition that tells them apart may be missing. Identical values can stand only once.

Our source for the XC50 values is ChEMBL document CHEMBL1157539, “Thousands of chemical starting points for antimalarial lead identification” (Nature, 2010).

`C=C(F)c1sc(CNCCCNc2nc3ccccc3[nH]2)c(C)c1Br` had an XC50 (Plasmodium falciparum, 3D7) of 367 nM.
The same measure, in the same setting: next, `COc1cc(NC(=O)c2cc([N+](=O)[O-])ccc2NC(=O)CNC2CCCCC2C)cc(OC)c1` (stereo not given): 1730 nM.
Where the note is “Plasmodium falciparum, 3D7”, `COc1cc(C)ccc1S(=O)(=O)N1CCCCC(c2ccc(C(F)(F)F)cc2)=N1` displayed an XC50 of 775 nM.
The same measure, in the same setting: the same measure for `CO/C(=C\C=C/c1cc2cc(Cl)c(Cl)cc2[nH]1)C(=O)NC1CC(C)(C)N(C)C(C)(C)C1`: 833 nM; for `COc1cccc(CNc2noc(-c3c(-c4ccccc4)noc3C)n2)c1OC`: 875 nM; for `COc1ccc(CNC2CCN(C)CC2)cc1-c1ccc(S(=O)(=O)NCCc2ccccn2)c(C)c1`: 1150 nM.
Where the note is “Plasmodium falciparum, 3D7”, `Cc1ccc2c(Cl)c(C(=O)N3CC(C)OC(C)C3)sc2c1` (stereo not given) yielded an XC50 of 176 nM.
With `Cc1[nH]c(C)c(-c2ccc(Oc3ccc(OC(F)(F)F)cc3)cc2)c(=O)c1Br`, the XC50 was 563 nM and 112 nM.
The molecule `OC(CNC1CCCCC1)Cn1c2ccc(I)cc2c2cc(I)ccc21` (stereo not given) gave an XC50 (Plasmodium falciparum, 3D7) of 337 nM.
On the same count and under the same terms, the same measure for `O=C(Nc1cccc(-c2ccc(CN3CCC(O)CC3)cc2)c1)c1cccc(Cl)c1`: 764 nM.
Take `COc1cc(N)c(Cl)cc1C(=O)NC1CCC(NCC2CCCCC2)CC1` (stereo not given): where the note is “Plasmodium falciparum, 3D7”, the XC50 stood at 426 nM.
On the same count and under the same terms, the same measure for `CN1CCc2cc(CN3CC4(C)CC3CC(C)(C)C4)c(O)cc2C(c2ccccc2)C1` (stereo not given): 720 nM; for `CC[C@H]1CN2CC[C@H]1C[C@H]2[C@H](O)c1cc(/C=C/c2ccccc2)nc2ccc(OC)cc12`: 42.7 nM; for `O=C(NCCN1CCC(c2ccncc2)CC1)c1ccc(Nc2nccc(Nc3ccc(Oc4ccccc4)cc3)n2)cc1`: 724 nM.
Take `CS(=O)(=O)c1ccc(OCCCN(Cc2ccccc2C(F)(F)F)c2ccc(C#N)c(C(F)(F)F)c2)cc1`: the XC50 (Plasmodium falciparum, 3D7) worked out at 1020 nM.
Same read-out and setting: next, `CNc1ccc(CNCc2cccc(-c3ccc(-c4nc5ccccc5[nH]4)cc3)c2)cc1`: 300 nM; `COc1cccc(CNC[C@@H](O)[C@H](Cc2ccccc2)NC(=O)c2cc(OC(C)C)cc(N3CCCCS3(=O)=O)c2)c1`: 730 nM.
On the same count and under the same terms, next, `CCCCCc1cc(O)c2c(c1)OC(C)(C)c1ccncc1-2`: 763 nM.
Still for that read-out and setting: the same measure for `NCCCNc1nccc(N2CCc3ncnc(Nc4ccc(OCc5cccc(F)c5)c(Cl)c4)c3C2)n1`: 832 nM; for `O=C(NC1CCN(CC2(c3ccc(Cl)cc3)CCCCC2)CC1)c1cc[nH]n1`: 84 nM; for `Cc1ccc2c(=NN=Cc3cccc(Cl)c3)cc(C)[nH]c2c1`: 949 nM.
The molecule `CCCCCCCCN1CCN(CCCCCCNc2c3ccccc3nc3ccccc23)CC1` registered an XC50 (Plasmodium falciparum, 3D7) of 162 nM.
On the same count and under the same terms, next, `Cc1cc(C(F)(F)F)n2nc(C(=O)N(Cc3cncn3Cc3ccccc3F)CC3CC3)cc2n1`: 956 nM; `CS(=O)(=O)N1CC2(CCN(CCC(NC(=O)/C=C/c3ccccc3)c3ccc(Cl)c(Cl)c3)CC2)c2ccccc21` (stereo not given): 782 nM; `COc1cc(F)c2nccc([C@@H](O)CN3CCC(NCc4ccc5c(n4)NC(=O)CS5)CC3)c2c1`: 560 nM.
On the same count and under the same terms, the same measure for `CC(C)(C)c1ccc(CNC(=O)c2ccc(CNC3CCC(N)CC3)s2)cc1` (stereo not given): 531 nM; for `COc1ccc(-c2cncc3ccc(C(=O)NCCCn4ccnc4)nc23)cc1`: 748 nM; for `CCOC(=O)c1c[nH]c2c(sc3cc(OC)ccc32)c1=O`: 387 nM.
The same measure, in the same setting: the same measure for `CC(C)c1ccc(NC(=O)Nc2ccc(Cn3ncc(N4CCCNCC4)c(Cl)c3=O)cc2)cc1`: 1050 nM; for `CN(C)CCN(C)Cc1nc(-c2ccc3c(Nc4ccc(Oc5ccccc5)cc4)ccnc3c2)cs1`: 212 nM.
Take `COc1ccc2nc(N3CCN(C(=O)OC(C)(C)C)CC3)nc(NCCCc3ccccc3)c2c1`: the XC50 (Plasmodium falciparum, 3D7) came to 687 nM.
The same measure, in the same setting: next, `COc1cccc(OC2CCN(C(=O)c3ccc(-c4ccc(N5CCCC5=O)cc4C)cc3)CC2)c1`: 1010 nM; `CCc1cn(CCS(C)(=O)=O)c2ccc(C(=O)N[C@@H](Cc3ccccc3)[C@H](O)CNC(C)(C)CCCC(C)C)cc12`: 877 nM.
`c1ccc(-c2nc(NCCCn3ccnc3)cc(-c3ccncc3)n2)cc1` gave an XC50 (Plasmodium falciparum, 3D7) of 167 nM.
The same measure, in the same setting: next, `Cc1[nH]c(C)c(-c2ccc(OCCSc3ccncc3)cc2)c(=O)c1Br`: 393 nM.
`O=C(O[C@H]1CN[C@H](C#Cc2cc3ncnc(Nc4ccc5c(ccn5S(=O)(=O)c5cccs5)c4)c3s2)C1)N1CCOCC1` yielded an XC50 (Plasmodium falciparum, 3D7) of 1100 nM.
Still for that read-out and setting: next, `CCCC(=O)NC(NC(=S)Nc1ccc([N+](=O)[O-])cc1)C(Cl)(Cl)Cl` (stereo not given): 1030 nM; `Cc1nc2ccc(NC(=O)Nc3ccnc4ccc(C(F)(F)F)cc34)cc2o1`: 912 nM; `CCOc1ccc(N2CCN(CCCCNC(=O)c3ccc(NC(=O)c4ccc(Cl)cc4)cc3)CC2)c(OCC)c1`: 567 nM.
Still for that read-out and setting: next, `CC(=O)Nc1nc(C(=O)Nc2cccc(-c3ccc(-c4nc5ccccc5[nH]4)cc3)c2)cs1`: 421 nM; `Cc1cc(-c2ccc3c(c2)CC[C@@H](N[C@@H](C)c2ccccc2)C3)cnc1N`: 1730 nM; `C=CCOC(=O)N1CCC(CNCc2cccc(-c3ccc(-c4nc5cccc(C)c5[nH]4)cc3)c2)C1` (stereo not given): 251 nM.
Still for that read-out and setting: the same measure for `CC(=O)c1ccc(N2C(=O)C3C(Cc4ccc(OC(C)(C)C)cc4)NC4(C(=O)N(Cc5ccc(C(C)(C)C)cc5)c5ccccc54)C3C2=O)cc1` (stereo not given): 1280 nM.
Where the note is “Plasmodium falciparum, 3D7”, `O=C(Nc1cccc(-c2ccc(-c3nc4cc(C(F)(F)F)ccc4[nH]3)s2)c1)c1cccnc1` returned an XC50 of 363 nM.
The same measure, in the same setting: next, `CCN1CCN(c2cc(C)c3cc(NC(=O)c4ccc(N(CC)CC)cc4)ccc3n2)CC1`: 962 nM; `CCCCCCc1cc(O)c2c3c(c(=O)oc2c1)CCN(C)C3`: 671 nM.
On the same count and under the same terms, the same measure for `O=C(/C=C/c1ccc(F)cc1)NC1CCC(CCN2CCc3ccc(-n4cccn4)cc3CC2)CC1` (stereo not given): 1440 nM.
The same measure, in the same setting: the same measure for `Fc1cc(Cl)ccc1Nc1ccnc2cc(-c3ccc(CN4CCSCC4)o3)ccc12`: 782 nM.
`COc1ccc2ccccc2c1C=NN=c1cc(C)[nH]c2c(C)cccc12` showed an XC50 (Plasmodium falciparum, 3D7) of 818 nM.
The molecule `CN(Cc1cccc(O)c1)C1CCN(c2cc(NC(=O)c3cccc(F)c3)ccn2)CC1` registered an XC50 (Plasmodium falciparum, 3D7) of 847 nM.
The same measure, in the same setting: next, `CC1(C)NC(N)=NC(=N)N1OCCCSc1ccccc1`: 3.2 nM.
Same read-out and setting: the same measure for `CCOC(=O)c1ccc(NC(=O)N(Cc2ccc(-c3ccc(CN4CCNCC4)cc3)cc2)C2CCN(Cc3ccccc3)CC2)cc1`: 797 nM; for `CC1(CCCCN2CCC(Oc3ccc(F)cc3F)CC2)C(=O)Nc2ccccc21` (stereo not given): 761 nM; for `O=C(/C=C/c1ccc(C(F)(F)F)cc1)NCCCCCN1CCC(c2c[nH]c3ccccc23)CC1`: 683 nM.
Same read-out and setting: next, `CN1C2CCC1c1cc(NC(=O)c3cc(-c4ccc(Cl)cc4)cs3)ccc12` (stereo not given): 1300 nM; `CC(C)[C@@H](NC(=O)NC1CCC(CCN2C3CCC2CC(OC(=O)C(CO)c2ccccc2)C3)CC1)C(O)(c1ccccc1)c1ccccc1` (stereo not given in full): 812 nM.
Molecule `CN1CCN(c2ncnc3ccc(NC(=O)Nc4ccc(Cl)c(Cl)c4)cc23)CC1` came in with an XC50 (Plasmodium falciparum, 3D7) of 264 nM.
Under “Plasmodium falciparum, 3D7”, `Cc1oc(-c2ccccc2)nc1CCOc1ccc(C[C@H](Nc2ccccc2C(=O)c2ccccc2)C(=O)NCc2ccccn2)cc1` registered an XC50 of 884 nM.
The same measure, in the same setting: next, `CN(Cc1ccc(-c2ccc(C(F)(F)F)cc2)cc1)C(=O)Cn1c(CCc2cccc(F)c2F)cc(=O)c2ccc(OCCCN3CCCCC3)cc21`: 706 nM; `OC1CCN(c2cc(-c3ccccn3)nc(-c3ccccn3)n2)CC1`: 1050 nM.
